Reference: PMC10301922, “Anti-Oxidant, Anti-Mutagenic Activity and Safety Evaluation of Antrocin” (Toxics, 2023)
Values joined by “and” are separate entries in the source; they are usually repeats but may differ in a detail not shown here. Equal values may be shown once. “Also recorded” adds a separate entry of the source. Read-outs that look alike come from different tables or passages of the source.

What was measured:
Sprague Dawley rats [1] = assay: 28-day oral toxicity test: absolute organ weight
Sprague Dawley rats [2] = assay: 28-day oral toxicity test: hematology
Total polyphenol content = details: 10 mg/mL antrocin
Protocol: We added 40–50 μL of sample to a 96-well plate and made it up to 100 μL with ddH2O. For each sample, a parallel sample was prepared as a sample background control. Vanillic acid was used as a positive control. We added 50 μL of 50 mM vanillic acid solution per well to the desired wells and made it up to 100 μL with ddH2O. We adjusted the volume of all standard curves to 100 µL with ddH2O. We then added 20 μL PC (Phenolic Compounds) Probe to the standard curve and sample reaction wells, and 20 μL PC Assay Buffer to the sample background wells. For standard curve preparation, we added 0, 2, 4, 6, 8, and 10 μL of 1 mM catechin standards to clear 96-well plates to generate 0, 2, 4, 6, 8, and 10 nmol/well catechin standard, respectively. We adjusted the volume of all standard curves to 100 µL with ddH2O. […] The absorbance was measured at 480 nm.
We subtracted the 0 nmol standard OD480 value from all standard curve readings and drew a catechin standard curve. If the sample background well reads were significant, the sample background control reads were subtracted from their paired sample reads. […]
B stands for the amount of diazo chromophore, calculated from the standard curve (nmol of catechin); D stands for the sample dilution factor (for undiluted samples, D = 1); V stands for the volume of sample added to the well (in µL).

[3] = system: Salmonella typhimurium TA98
[4] = system: Salmonella typhimurium TA1535; assay: Ames test (plate incorporation), TA1535
[5] = system: Salmonella typhimurium TA1537; assay: Ames test (plate incorporation), TA1537
[6] = female rats, 7.5 mg/kg oral 28 d
[7] = female rats, 37.5 mg/kg oral 28 d
[8] = male rats, 37.5 mg/kg oral 28 d
[9] = TA98, with S9, mutagen 2-AA 25 μg/plate, antrocin 0.025 mg/plate
[10] = TA98, with S9, mutagen 2-AA 25 μg/plate, antrocin 0.05 mg/plate
[11] = TA98, with S9, mutagen 2-AA 25 μg/plate, antrocin […]
[12] = TA98, without S9, mutagen 4-NQO 2.5 μg/plate, antrocin 0.025 mg/plate
[13] = TA98, without S9, mutagen 4-NQO 2.5 μg/plate, antrocin 0.05 mg/plate
[14] = TA98, without S9, mutagen 4-NQO 2.5 μg/plate, antrocin […]

C=C1CC[C@H]2C(C)(C)CCC[C@@]23C(=O)OC[C@@H]13 [Antrocin, (-)-Antrocin]
Testis/Ovary (Sprague Dawley rats [1]; female rats (ovary), 7.5 mg/kg oral 28 d): 0.07 ± 0.02 g | Testis/Ovary (Sprague Dawley rats [1]; female rats (ovary), 37.5 mg/kg oral 28 d): 0.10 ± 0.01 g | Adrenal (Sprague Dawley rats [1]; [6]): 0.05 ± 0.01 g | Brain (Sprague Dawley rats [1]; [6]): 1.9 ± 0.1 g | Heart (Sprague Dawley rats [1]; [6]): 0.9 ± 0.1 g | Kidney (Sprague Dawley rats [1]; [6]): 1.8 ± 0.1 g | Liver (Sprague Dawley rats [1]; [6]): 8.5 ± 0.7 g | Spleen (Sprague Dawley rats [1]; [6]): 0.4 ± 0.1 g | Thymus (Sprague Dawley rats [1]; [6]): 0.4 ± 0.1 g | Adrenal (Sprague Dawley rats [1]; [7]): 0.05 ± 0.01 g | Brain (Sprague Dawley rats [1]; [7]): 2.0 ± 0.1 g | Heart (Sprague Dawley rats [1]; [7]): 1.0 ± 0.1 g | Kidney (Sprague Dawley rats [1]; [7]): 1.7 ± 0.1 g | Liver (Sprague Dawley rats [1]; [7]): 7.8 ± 0.5 g | Spleen (Sprague Dawley rats [1]; [7]): 0.4 ± 0.0 g | Thymus (Sprague Dawley rats [1]; [7]): 0.4 ± 0.1 g | Testis/Ovary (Sprague Dawley rats [1]; male rats (testis), 7.5 mg/kg oral 28 d): 3.1 ± 0.2 g | Testis/Ovary (Sprague Dawley rats [1]; male rats (testis), 37.5 mg/kg oral 28 d): 3.2 ± 0.2 g | Adrenal (Sprague Dawley rats [1]; male rats, 7.5 mg/kg oral 28 d): 0.05 ± 0.01 g | Brain (Sprague Dawley rats [1]; male rats, 7.5 mg/kg oral 28 d): 2.1 ± 0.2 g | Heart (Sprague Dawley rats [1]; male rats, 7.5 mg/kg oral 28 d): 1.3 ± 0.2 g | Kidney (Sprague Dawley rats [1]; male rats, 7.5 mg/kg oral 28 d): 2.8 ± 0.4 g | Liver (Sprague Dawley rats [1]; male rats, 7.5 mg/kg oral 28 d): 12.2 ± 1.9 g | Spleen (Sprague Dawley rats [1]; male rats, 7.5 mg/kg oral 28 d): 0.6 ± 0.1 g | Thymus (Sprague Dawley rats [1]; male rats, 7.5 mg/kg oral 28 d): 0.6 ± 0.1 g | Adrenal (Sprague Dawley rats [1]; [8]): 0.06 ± 0.00 g | Brain (Sprague Dawley rats [1]; [8]): 2.0 ± 0.1 g | Heart (Sprague Dawley rats [1]; [8]): 1.3 ± 0.2 g | Kidney (Sprague Dawley rats [1]; [8]): 2.7 ± 0.2 g | Liver (Sprague Dawley rats [1]; [8]): 11.1 ± 1.2 g | Spleen (Sprague Dawley rats [1]; [8]): 0.6 ± 0.1 g | Thymus (Sprague Dawley rats [1]; [8]): 0.4 ± 0.1 g | BASO (Sprague Dawley rats [2]; [6]): 0.0 ± 0.1% | EOSIN (Sprague Dawley rats [2]; [6]): 2.1 ± 1.7% | HCT (Sprague Dawley rats [2]; [6]): 45.0 ± 3.7% | HGB (Sprague Dawley rats [2]; [6]): 14.7 ± 1.2 g/dL | LYMPH (Sprague Dawley rats [2]; [6]): 86.1 ± 5.4% | MCH (Sprague Dawley rats [2]; [6]): 19.5 ± 0.8 pg | MCHC (Sprague Dawley rats [2]; [6]): 32.7 ± 0.3 g/dL | MCV (Sprague Dawley rats [2]; [6]): 59.7 ± 1.7 fL | MONO (Sprague Dawley rats [2]; [6]): 2.3 ± 1.1% | NEUT (Sprague Dawley rats [2]; [6]): 9.6 ± 3.3% | PLT (Sprague Dawley rats [2]; [6]): 606.0 ± 430.1 * 10^3/µL | RBC (Sprague Dawley rats [2]; [6]): 7.5 ± 0.6 10^6/µL | WBC (Sprague Dawley rats [2]; [6]): 8.7 ± 3.4 10^3/µL | BASO (Sprague Dawley rats [2]; [7]): 0.2 ± 0.2% | EOSIN (Sprague Dawley rats [2]; [7]): 1.2 ± 0.3% | HCT (Sprague Dawley rats [2]; [7]): 48.4 ± 2.0% | HGB (Sprague Dawley rats [2]; [7]): 15.8 ± 0.5 g/dL | LYMPH (Sprague Dawley rats [2]; [7]): 84.5 ± 4.1% | MCH (Sprague Dawley rats [2]; [7]): 19.8 ± 0.5 pg | MCHC (Sprague Dawley rats [2]; [7]): 32.7 ± 0.4 g/dL | MCV (Sprague Dawley rats [2]; [7]): 60.6 ± 1.0 fL | MONO (Sprague Dawley rats [2]; [7]): 3.2 ± 2.0% | NEUT (Sprague Dawley rats [2]; [7]): 10.9 ± 3.4% | PLT (Sprague Dawley rats [2]; [7]): 1065.6 ± 199.8 10^3/µL | RBC (Sprague Dawley rats [2]; [7]): 8.0 ± 0.4 10^6/µL | WBC (Sprague Dawley rats [2]; [7]): 7.8 ± 4.5 10^3/µL | BASO (Sprague Dawley rats [2]; male rats, 7.5 mg/kg oral 28 d): 0.0 ± 0.1% | EOSIN (Sprague Dawley rats [2]; male rats, 7.5 mg/kg oral 28 d): 1.2 ± 0.3% | HCT (Sprague Dawley rats [2]; male rats, 7.5 mg/kg oral 28 d): 45.8 ± 1.2% | HGB (Sprague Dawley rats [2]; male rats, 7.5 mg/kg oral 28 d): 15.1 ± 0.4 g/dL | LYMPH (Sprague Dawley rats [2]; male rats, 7.5 mg/kg oral 28 d): 77.2 ± 1.7 % | MCH (Sprague Dawley rats [2]; male rats, 7.5 mg/kg oral 28 d): 19.7 ± 0.5 pg | MCHC (Sprague Dawley rats [2]; male rats, 7.5 mg/kg oral 28 d): 32.9 ± 0.3 g/dL | MCV (Sprague Dawley rats [2]; male rats, 7.5 mg/kg oral 28 d): 59.8 ± 1.5 fL | MONO (Sprague Dawley rats [2]; male rats, 7.5 mg/kg oral 28 d): 2.7 ± 2.4% | NEUT (Sprague Dawley rats [2]; male rats, 7.5 mg/kg oral 28 d): 18.9 ± 3.1% | PLT (Sprague Dawley rats [2]; male rats, 7.5 mg/kg oral 28 d): 1235.2 ± 20.9 * 10^3/µL | RBC (Sprague Dawley rats [2]; male rats, 7.5 mg/kg oral 28 d): 7.7 ± 0.1 10^6/µL | WBC (Sprague Dawley rats [2]; male rats, 7.5 mg/kg oral 28 d): 5.3 ± 2.0 10^3/µL | BASO (Sprague Dawley rats [2]; [8]): 0.1 ± 0.1% | EOSIN (Sprague Dawley rats [2]; [8]): 0.6 ± 0.4% | HCT (Sprague Dawley rats [2]; [8]): 48.3 ± 3.2% | HGB (Sprague Dawley rats [2]; [8]): 15.7 ± 0.9 g/dL | LYMPH (Sprague Dawley rats [2]; [8]): 83.9 ± 3.9 % | MCH (Sprague Dawley rats [2]; [8]): 19.4 ± 0.6 pg | MCHC (Sprague Dawley rats [2]; [8]): 32.4 ± 0.6 g/dL | MCV (Sprague Dawley rats [2]; [8]): 59.8 ± 1.3 fL | MONO (Sprague Dawley rats [2]; [8]): 1.8 ± 1.1% | NEUT (Sprague Dawley rats [2]; [8]): 13.6 ± 3.7 % | PLT (Sprague Dawley rats [2]; [8]): 1372.2 ± 161.8 * 10^3/µL | RBC (Sprague Dawley rats [2]; [8]): 8.1 ± 0.6 10^6/µL | WBC (Sprague Dawley rats [2]; [8]): 6.4 ± 1.1 10^3/µL | Total Phenolic Contents (mM Catechin Equivalents) (Total polyphenol content): 0.016 ± 0.000 mM Catechin equivalents and 0.016 ± 0.000 ^1 mM Catechin equivalents | Inhibition (%) of mutagenicity [3, 9]: 18.17% | Number of Revertant [3, 9]: 4959.0 ± 739.1 Colony/Plate | Inhibition (%) of mutagenicity [3, 10]: 33.67% | Number of Revertant [3, 10]: 4024.0 ± 251.1 Colony/Plate | Inhibition (%) of mutagenicity [3, 11]: 6.21% | Number of Revertant [3, 11]: 5680.3 ± 640.7 Colony/Plate | antimutagenic agent strength ([3]; TA98, without S9, against direct mutagen 4-NQO): strong anti-mutagenic agent; also recorded: very strong anti-mutagenic effect | Inhibition (%) of mutagenicity [3, 12]: 51.03% | Number of Revertant [3, 12]: 67.7 ± 2.5 Colony/Plate | Inhibition (%) of mutagenicity [3, 13]: 98.62% | Number of Revertant [3, 13]: 21.7 ± 1.5 Colony/Plate | Inhibition (%) of mutagenicity [3, 14]: 35.17% | Number of Revertant [3, 14]: 83.0 ± 3.6 Colony/Plate | Number of Revertant ([4]; TA1535, with S9, 0.003125 mg/plate): 17.3 ± 0.5 Colony/Plate | Number of Revertant ([4]; TA1535, with S9, 0.00625 mg/plate): 15.7 ± 6.1 Colony/Plate | Number of Revertant ([4]; TA1535, with S9, 0.025 mg/plate): 18.0 ± 1.6 Colony/Plate | Number of Revertant ([4]; TA1535, with S9, 0.05 mg/plate): 14.0 ± 2.4 Colony/Plate | Number of Revertant ([4]; TA1535, without S9, 0.003125 mg/plate): 11.7 ± 2.4 Colony/Plate | Number of Revertant ([4]; TA1535, without S9, 0.00625 mg/plate): 14.7 ± 4.0 Colony/Plate | Number of Revertant ([4]; TA1535, without S9, 0.025 mg/plate): 10.7 ± 1.2 Colony/Plate | Number of Revertant ([4]; TA1535, without S9, 0.05 mg/plate): 12.7 ± 2.9 Colony/Plate | Number of Revertant ([5]; TA1537, with S9, 0.003125 mg/plate): 11.7 ± 1.9 Colony/Plate | Number of Revertant ([5]; TA1537, with S9, 0.00625 mg/plate): 6.7 ± 2.4 Colony/Plate | Number of Revertant ([5]; TA1537, with S9, 0.025 mg/plate): 10.3 ± 2.1 Colony/Plate | Number of Revertant ([5]; TA1537, with S9, 0.05 mg/plate): 6.0 ± 1.4 Colony/Plate | Number of Revertant ([5]; TA1537, without S9, 0.003125 mg/plate): 14.3 ± 2.6 Colony/Plate | Number of Revertant ([5]; TA1537, without S9, 0.00625 mg/plate): 8.7 ± 0.5 Colony/Plate | Number of Revertant ([5]; TA1537, without S9, 0.025 mg/plate): 13.0 ± 2.2 Colony/Plate | Number of Revertant ([5]; TA1537, without S9, 0.05 mg/plate): 9.7 ± 0.9 Colony/Plate
